Results as given in ChEMBL document CHEMBL1201862, “PubChem BioAssay data set” (2004).
Structures can show the parent of a compound that is named as a salt.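 Step 1: Grow cells in 96-well plates. Step 2: Expose to compound for 48 hours at 5 concentrations. Step 3: Interpolate endpoints linearly; if unreached, use highest concentration. GI50: concentration for 50% inhibition of growth.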 Calls of active or inactive are those of the source. Cut-off read from the data, not from the text of the source: active = GI50 up to about 1.1 µM and inactive = higher.

How the values were obtained:
Experiment in all cases: inhibition of tumour cell growth, NCI panel, 48 h
786-0 = system: 786-0
ACHN = system: ACHN
HCC 2998 = system: HCC 2998
HCT-116 = system: HCT-116
HT-29 = system: HT-29
KM12 = system: KM12
LOX IMVI = system: LOX IMVI
M14 = system: M14
MCF7 = system: MCF7
Malme-3M = system: Malme-3M
NCI/ADR-RES = system: NCI/ADR-RES
OVCAR-4 = system: OVCAR-4
OVCAR-5 = system: OVCAR-5
PC-3 = system: PC-3
RXF 393 = system: RXF 393
SN12C = system: SN12C
SNB-19 = system: SNB-19
SNB-75 = system: SNB-75
U-251 = system: U-251
UACC-62 = system: UACC-62

Measured: GI50

Nc1ccc(S(=O)(=O)Nc2cnc3c(Cl)cccc3n2)cc1 [CHLORSULFAQUINOXALINE]
inactive: 786-0 86.3 µM | ACHN 107 µM | HCC 2998 99.5 µM | HCT-116 7.28 µM | HT-29 248 µM | KM12 147 µM | LOX IMVI 84.9 µM | M14 274 µM | MCF7 101 µM | Malme-3M 164 µM | NCI/ADR-RES 47.5 µM | OVCAR-4 125 µM | OVCAR-5 192 µM | PC-3 86.1 µM | RXF 393 82.2 µM | SN12C 94.4 µM | SNB-19 92.3 µM | SNB-75 181 µM | U-251 207 µM | UACC-62 36.7 µM

c1ccc([C@H]2CN3CCSC3=N2)cc1 [LEVAMISOLE HYDROCHLORIDE]
inactive: 786-0 > 100 µM | ACHN > 100 µM | HCC 2998 > 100 µM | HCT-116 > 100 µM | HT-29 > 100 µM | KM12 > 100 µM | LOX IMVI > 100 µM | M14 > 100 µM | MCF7 > 100 µM | Malme-3M > 100 µM | NCI/ADR-RES > 100 µM | OVCAR-4 > 100 µM | OVCAR-5 > 100 µM | PC-3 > 100 µM | RXF 393 > 100 µM | SN12C > 100 µM | SNB-19 > 100 µM | SNB-75 > 100 µM | U-251 > 100 µM | UACC-62 > 100 µM
